# Source: patent US20150004110A1, “NOVEL ANTI-AGING AND DEPIGMENTING COSMETIC COMPOSITIONS” (DIVERCHIM, priority 2011, published 2015)
# Columns and labels:
# B16 melanocytes = experiment: Cell viability, MTT reduction test; format: cell-based
# Protocol: The melanocytes were seeded in a 96-well plate and were cultured for 24 h (37° C., 5% CO2, DMEM 1 g/L glucose without phenol red supplemented with glucose at 3 g/L, L-glutamine at 2 mM, penicillin at 50 U/mL, streptomycin at 50 μg/mL, foetal calf serum (FCS) at 10%). After incubation, the culture medium was then replaced with culture medium supplemented or not supplemented (unstimulated control) with a stable derivative of α-MSH and containing or not containing (controls) the test compounds or the reference (kojic acid at 25, 100, 400, 800 μg/mL). Each experiment was carried out with n=3, apart from the controls carried out with n=6, then the cells were incubated for 72 h. Wells without cells received in parallel the same quantities of medium supplemented or not supplemented with NDP-MSH and containing or not containing the test compounds or the reference in order to quantify the background noise associated with the presence of the compounds. At the end of the treatment, the cells were incubated in the presence of MTT (tetrazolium salt), the transformation of which to blue crystals of formazan is proportional to the activity of succinate dehydrogenase (mitochondrial enzyme). After dissociation of the cells, the formazan was dissolved in DMSO medium and the optical density (OD), representative of the number of living cells and of their metabolic reactivity, was measured with a microplate reader at 540 nm (VERSAmax, Molecular Devices). The operating conditions are the same as in Example 12.
# collagen VII = experiment: Staining and immunolabelling of skin explant sections: collagen VII; format: cell-based, human; conditions: treated skin explant sections
# Protocol: 1. Preparation of the explants • During abdominoplasty of a person, 45 skin explants were prepared. The explants were put in BEM medium (BIO-EC's Explants Medium) for survival at 37° C. in humid atmosphere, enriched with 5% CO2.
# 2. Application of the products • The solutions are prepared in DMSO from pure products, in order to obtain final concentrations of […] by incorporating an identical volume of 10 μl in each well and for each treatment. The treatment was carried out in the survival medium on days 0, 1, 2, 5 and 7.
# 3. Taking samples • On D0, the 3 explants of batch TO were taken and each explant was cut in two. One part was fixed in buffered formol for observation of the general morphology. The other was frozen and stored at −80° C. • On D5 and D9, 3 explants from each batch were taken and treated in the same way.
# 4. Histological treatment • After fixation for 48 hours in buffered formol, the samples were dehydrated and embedded in paraffin using a Leica 1020 automatic dehydrator. They were embedded according to procedure MO-H-153 using a Leica EG 1160 coating station. Sections of 5 μm were prepared according to procedure MO-H-173 using a Minot-type microtome, Leica RM 2125 and mounted on Superfrost® histological glass slides.
# 6. Staining and immunolabelling
# Immunolabelling will be carried out on sections with the appropriate antibody. […]
# [1] = system: normal human epidermal keratinocytes; experiment: Differential expression PCR arrays (RT-qPCR) of keratinocyte differentiation markers; format: cell-based; conditions: 10 μM
# Protocol: The expression of the specific markers was evaluated by RT-qPCR (reverse transcription quantitative polymerase chain reaction) on messenger RNAs extracted from the cell lawns from each treatment. The transcriptomic profile contains 64 genes selected for their importance in keratinocyte differentiation. The PCR reactions (polymerase chain reactions) were carried out by quantitative PCR with the “Light Cycler” system (Roche Molecular System Inc.) according to the procedures recommended by the supplier. Normal human epidermal keratinocytes were incubated in the presence of compound 1 or a reference with calcium chloride. The expression of the specific markers was evaluated by RT-qPCR on the messenger RNAs extracted from the cell lawns from each treatment.
# Transglutaminase K, TGK = experiment: In situ immunolabelling of TGK in keratinocytes; format: cell-based; conditions: normal human epidermal keratinocytes
# From the text: Transglutaminase K, TGK, and filaggrin are two protein markers of epidermal differentiation involved in arrangement of the keratin filaments and formation of the envelope of the stratum corneum.
# interleukin-8 (IL-8) = experiment: Release of IL-8 by NCTC-2544 keratinocytes stimulated by PMA; format: cell-based, human; conditions: NCTC-2544 stimulated by PMA
# Protocol: The effects of compound 1 were evaluated on two routes of inflammation, the “chemokine” route and the “prostaglandin” route, by measuring the release of interleukin-8 (IL-8) and of prostaglandin E2 (PGE2) by a human keratinocyte line NCTC-2544 stimulated by phorbol-myristate acetate (PMA).
# PPARγ (h) = molecular target: T1, PPARγ (h) (Homo sapiens, UniProt P37231); experiment: PPARγ agonist effect, coactivator Alpha screen; format: biochemical
# T1 construct: Cerep (contract laboratory that ran the assay)
# T1 sequence (P37231 1-505): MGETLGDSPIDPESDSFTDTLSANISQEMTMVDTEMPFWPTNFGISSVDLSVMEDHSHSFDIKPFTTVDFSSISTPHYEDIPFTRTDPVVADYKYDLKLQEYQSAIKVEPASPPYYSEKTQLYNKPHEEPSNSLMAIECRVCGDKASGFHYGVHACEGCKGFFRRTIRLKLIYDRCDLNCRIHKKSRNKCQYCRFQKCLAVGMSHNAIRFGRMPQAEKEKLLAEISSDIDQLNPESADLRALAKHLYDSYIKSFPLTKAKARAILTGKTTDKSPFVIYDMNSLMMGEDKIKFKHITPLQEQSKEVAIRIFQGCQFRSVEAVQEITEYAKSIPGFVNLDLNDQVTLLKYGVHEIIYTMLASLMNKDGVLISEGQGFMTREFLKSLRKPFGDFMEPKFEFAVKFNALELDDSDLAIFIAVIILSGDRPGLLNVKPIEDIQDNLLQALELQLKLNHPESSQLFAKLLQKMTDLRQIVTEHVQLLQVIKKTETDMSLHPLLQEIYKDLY
# Protocol: The agonist or antagonist activity of compound 1 on the PPAR receptors was tested by fluorescence techniques. • Material and Methods
# The results are expressed as: • percentage of control specific agonist response (measured specific response/control specific agonist response)×100) and • percentage inhibition of the control specific agonist response (100−((measured specific response)/control specific agonist response)×100)) obtained in the presence of compound 1.
# The EC50 values (concentration at which the maximum specific response is 50%) and the IC50 values (concentration at which the maximum control specific agonist response is inhibited by 50%) are determined by non-linear regression analysis of the concentration-response curves with a mean replicated value using adjustment of Hill's equation
smiles,measurement,setting,value
"Oc1ccccc1CCOc1ccc(F)cc1 [Compound 1, 2-[2-(4-fluoro-phenoxy)-ethyl]-phenol]",Viability (MTT) % stimulated control,"B16 melanocytes; 10 μM, B16, 72 h, Table 2",83%
same,Viability (MTT) % stimulated control,"B16 melanocytes; 30 μM, B16, 72 h, Table 2",86%
same,Viability (MTT) % stimulated control,"B16 melanocytes; 30 μM, comparison with 2 reference molecules, Table 3",85%
same,Viability (MTT) % stimulated control,"B16 melanocytes; 100 μM, B16, 72 h, Table 2",22%
same,Viability (MTT) % stimulated control,"B16 melanocytes; 100 μM, comparison with 2 reference molecules, Table 3",13%
same,Collagen VII along the dermal-epidermal junction,collagen VII,moderate overexpression
same,Effect on keratinocyte differentiation (conclusion),[1],pro-differentiating effect
same,"Stimulation of expression of markers involved in lipid synthesis, antimicrobial defence, innate immunity and cell-cell interactions",[1]; compared with calcium chloride at 1.5 mM,"less, but similar to calcium chloride at 1.5 mM"
same,Protein expression of TGK,"Transglutaminase K, TGK",concentration-dependent stimulation of protein expression
same,Release of IL-8,interleukin-8 (IL-8),without altering
same,% Control agonist response,PPARγ (h); 10^−5 M,0%
same,% Control agonist response,PPARγ (h); 10^−6 M,0%
same,% Control agonist response,PPARγ (h); 10^−7 M,0%
same,PPARγ agonist activity (conclusion in words),PPARγ (h); 10^−7 to 10^−5 M,not an agonist
